Measured values published in patent publication US8466104B2, “Therapeutically active alpha MSH analogues” (AbbVie Inc., priority 2005, dated 2013).
“Also recorded” adds a separate entry of the source.

Key:
[1] = test system: LPS induced TNF-α production by human leucocytes (PBMC); experiment: Inhibition of LPS induced TNF-a production by human leucocytes in vitro (experimental setup 1); format: cell-based; conditions: for dose dependent reduction of LPS induced TNF-a accumulation / inhibitory effect on TNF-a accumulation compared to native a-MSH / LPS induced TNF-a accumulation, % of the maximal response (LPS-Vehicle): human leucocyte suspension; for LPS induced TNF-a accumulation, % of the maximal response (LPS-Vehicle): 10 ng LPS/mL, 18 hours, maximal effect (10^−7 M); for concentration at which the maximal inhibitory effect on LPS-induced TNF-α production was achieved: human lymphocyte suspension
Procedure: Inhibition of LPS Induced TNF-a Production by Human Leucocytes In Vitro
20 mL human blood is collected in vacutainer tubes containing EDTA. PBMC is isolated using Ficoll-Paque Plus as in Amersham's Instruction 71-7167-00 AD, 2002-06. PBMC is counted using Tryphan Blue Solution (Sigma) and incubated in RPMI 1640, (Applichem), supplemented with 10 mM Hepes (Sigma), 2 mM L-glutamin (Sigma), 0.1% BSA (Sigma) and 50U/50 μg/mL Penicillin/Streptomycin (Sigma) in the concentration 5×10^5 cells/mL. The isolated PBMC is incubated in a humidified 5% CO2, 95% air atmosphere, at 37° C., in 24 well flat-bottomed plates (Corning Incorporated) with medium, 10 ng LPS/mL (Sigma), and test compound. After 18 hours the samples are centrifuged, and TNF-α in the supernatants is measured using Tumour Necrosis Factor Alpha [(h)TNF-α] from Human Biotrak ELISA System (Amersham).
The samples are incubated as following per donor: • PBMC's in RPMI (Time Control) • PBMC's with 10 ng LPS/mL (Vehicle) • PBMC's, 10 ng LPS/mL, 10^−17M a-MSH or a-MSH analogue • PBMC's, 10 ng LPS/mL, 10^−15M a-MSH or a-MSH analogue • PBMC's, 10 ng LPS/mL, 10^−13M a-MSH or a-MSH analogue • PBMC's, 10 ng LPS/mL, 10^−11M a-MSH or a-MSH analogue • PBMC's, 10 ng LPS/mL, 10^−9M a-MSH or a-MSH analogue • PBMC's, 10 ng LPS/mL, 10^−7M a-MSH or a-MSH analogue
All samples are diluted from an initial stock solution between 1.4×10^−4M and 1.8×10^−3M. All solutions are handled in BSA coated vials in order to protect against binding of the compound to the surface of the vials.
Data is presented as mean±SE. The effect of test compounds on LPS induced TNF-a liberation is expressed as percentage of the TNF-a accumulation in the LPS-vehicle group. All comparisons are analysed with Student's unpaired t-test. Differences are considered significant at probability levels (p) of 0.05.

[2] = test system: ischemia-induced acute renal failure in rats; experiment: Inhibition of renal failure induced by 40 minutes bilateral occlusion of the renal arteries in rats (experimental setup 6); format: in vivo, rat; conditions: for diuresis (urine flow rate): 5 day after bilateral renal ischemia (RIR), 200 μg/kg iv; for effect on post ischemic polyuria: bilateral renal ischemia
Procedure: Inhibition of Renal Failure Induced by 40 Minutes Bilateral Occlusion of the Renal Arteries in Rats
Barrier-bred and specific pathogen-free female Wistar rats (250 g) are obtained from Charles River, Hannover, Germany. The animals are housed in a temperature (22-24° C.) and moisture (40-70%) controlled room with a 12-hour light-dark cycle (light on from 6:00 A.M. to 6:00 P.M.). All animals are given free access to tap water and a pelleted rat diet containing approximately 140 mmol/kg of sodium, 275 mmol/kg potassium and 23% protein (Altromin catalogue no. 1310, Altromin International, Lage, Germany).
The rats, which previously have been instrumented with a chronic venous catheter, are placed in metabolic cages and after a two days acclimation period to the metabolic cages, experimental ARF is induced by occlusion of both renal arteries for […]. During surgery, the rats are anesthetized with isoflurane-nitrous oxide and placed on a heated table to maintain rectal temperature at 37° C. Both kidneys are exposed through flank incisions, mobilized by being dissected free from the perirenal fat, then a small portion of the renal artery is gently dissected from the vein. The renal arteries are occluded with a smooth surfaced vascular clip (60 g pressure; World Precision Instruments, UK) for 40 min. Total ischemia is confirmed by observing blanching of the entire kidney surface. During the period of ischemia, the wounds are closed temporarily to maintain body temperature. After the clips are removed, the kidneys are observed for additional 2-5 min. to ensure color change, indicating blood reflow. Then the wound are closed with 3-0 silk ligatures. The rats returned to the metabolic cages, and daily 24 h urine output and water intake are measured for five days. As a control group, rats are subjected to sham operations identical to the ones used for ARF rats without occlusion of the renal arteries. Sham-operated rats are monitored in parallel with rats with ARF.
The rats are subjected to one of the following i.v treatments: • Vehicle: 0.5 ml 150 mM NaCl. • a-MSH: 200 μg a-melanocyte stimulating hormone/kg b.w. in 0.5 ml 150 mM NaCl. Test compound: 200 μg test compound/kg b.w. in 0.5 ml 150 mM NaCl. Treatment is given 5 minutes prior to reperfusion of the kidney and subsequently 6 and 24 hours later. Statistics
Data are presented as mean±S.E. Within group comparisons are analysed with Student's paired t test. Between group comparisons are performed by one way analysis of variance followed by Fishers Least Significant Difference test. Differences are considered significant at the 0.05 level.

Row | Substance | dose dependent reduction of LPS induced TNF-a accumulation [1] | inhibitory effect on TNF-a accumulation compared to native a-MSH [1] | LPS induced TNF-a accumulation, % of the maximal response (LPS-Vehicle) [1] [%] | concentration at which the maximal inhibitory effect on LPS-induced TNF-α production was achieved [1] | diuresis (urine flow rate) [2] [ml/24 hours] | effect on post ischemic polyuria [2] | effect on post ischemic polyuria ([2]; listed as SEQ ID NO: 1) | concentration at which the maximal inhibitory effect on LPS-induced TNF-α production was achieved ([1]; listed as α-MSH)
1 | Ac-Lys-Lys-Lys-Lys-Lys-Lys-Ser-Tyr-Ser-Met-Glu-His-Phe-Arg-Trp-Gly-Lys-Pro-Val-NH2 (Ac-KKKKKKSYSMEHFRWGKPV-NH2) [a-MSH analogue #1] | dose dependently reduce | markedly more pronounced | 47±2 | 10^−7 M | 18.8±3.6 | complete normalization of urine flow rate | completely normalized the diuresis | –
2 | Ac-Lys-Lys-Lys-Lys-Lys-Lys-Ser-Tyr-Ser-Nle-Glu-His-(D-Phe)-Arg-Trp-Gly-Lys-Pro-Val-NH2 (KKKKKKSYSXEHFRWGKPV; N-acetyl, Nle, D-Phe, C-amide) [a-MSH analogue #2] | dose dependently reduce | markedly more pronounced | 42±111 | 10^−7 M | – | markedly reduces the degree of polyuria | – | –
3 | Ac-Lys-Lys-Lys-Lys-Lys-Lys-Ser-Tyr-Ser-Nle-Glu-His-D-Nal-Arg-Trp-Gly-Lys-Pro-Val-NH2 (KKKKKKSYSXEHXRWGKPV; not fully specified; N-acetyl, Nle, D-Nal, C-amide) [a-MSH analogue #3] | dose dependently reduce | markedly more pronounced | 53±13 | – | – | – | – | –
4 | Ser-Tyr-Ser-Met-Glu-His-Phe-Arg-Trp-Gly-Lys-Pro-Val [a-MSH, reference compound] | dose dependently reduce | – | 73±9 | – | 29.0±2.9 | unable to reduce the polyuria; also recorded: unable to normalize the urine production | – | 10^−7 M
